Assay results: patent publication US9247759B2, “Identification of human T2R receptors that respond to bitter compounds that elicit the bitter taste in compositions, and the use thereof in assays to identify compounds that inhibit (block) bitter taste in compositions and use thereof” (SENOMYX, INC., priority 2007, dated 2016)

Assays:
hT2R14 [1] = molecular target: T1, hT2R14 (Homo sapiens (Human), UniProt Q9NYV8); assay: hT2R panel inhibition, transient HEK293 G16g44, agonist Aristolochic Acid 2 μM; format: cell-based; conditions: HEK293, compound at 25 μM; receptor activated to EC80 with the corresponding agonist; read-out: screening result against bitter receptor 14
Outline: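 Each hT2R was transiently transfected into HEK293 cells stably expressing G16g44 and assayed functionally for inhibition of agonist response. Agonists were applied at EC80: andrographolide at 0.5 mM for hT2R8 and aristolochic acid at 2 μM for hT2R14.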

hT2R4 = hT2R4 (Homo sapiens (Human), UniProt Q9NYW5); assay: hT2R panel inhibition, transient HEK293 G16g44, agonist Chloroquine pH6.5 5 mM; format: cell-based; conditions: HEK293, compound at 25 μM; receptor activated to EC80 with the corresponding agonist; class symbols; read-out: screening result against bitter receptor 4
Outline: (§1)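 The test compound's selectivity was profiled by challenging each transiently expressed human T2R with its activating bitter ligand at an EC80 concentration, inhibition being the reduction of receptor signalling it produced.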

hT2R16 = hT2R16 (Homo sapiens (Human), UniProt Q9NYV7); assay: hT2R panel inhibition, transient HEK293 G16g44, agonist Salicin 1 mM; format: cell-based; conditions: HEK293, compound at 25 μM; receptor activated to EC80 with the corresponding agonist; read-out: screening result against bitter receptor 16
Outline: as §1

hT2R5 = hT2R5 (Homo sapiens (Human), UniProt Q9NYW4); assay: hT2R panel inhibition, transient HEK293 G16g44, agonist Picoline 10 mM; format: cell-based; conditions: HEK293, compound at 25 μM; receptor activated to EC80 with the corresponding agonist; read-out: screening result against bitter receptor 5
Outline: as §1

hT2R9 = hT2R9 (Homo sapiens (Human), UniProt Q9NYW1); assay: hT2R panel inhibition, transient HEK293 G16g44, agonist Ofloxacin 1 mM; format: cell-based; conditions: HEK293, compound at 25 μM; receptor activated to EC80 with the corresponding agonist; read-out: screening result against bitter receptor 9
Outline: as §1

hT2R51 = hT2R51 (Homo sapiens (Human), UniProt P59533); assay: hT2R panel inhibition, transient HEK293 G16g44, agonist Prop 2.5 μM; format: cell-based; conditions: HEK293, compound at 25 μM; receptor activated to EC80 with the corresponding agonist; read-out: screening result against bitter receptor 51
Outline: as §1

hT2R14 [2] = molecular target: T1, hT2R14; assay: hT2R14 antagonist high-throughput FLIPR assay, stable cell line with G16g44, agonist aristolochic acid; format: cell-based; conditions: read-out: IC50 on hT2R14 bitter receptor
Outline: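 HEK293 cells stably expressing hT2R14 with chimeric G16g44 were stimulated with aristolochic acid (3 μM), giving 70-80% of maximal receptor activity. Test compounds were added together with the agonist, and antagonism was read as fluorescent calcium signal on FLIPR.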

hT2R13 = hT2R13 (Homo sapiens (Human), UniProt Q9NYV9); assay: hT2R panel inhibition, transient HEK293 G16g44, agonist Oxyphenonium 1 mM; format: cell-based; conditions: HEK293, compound at 25 μM; receptor activated to EC80 with the corresponding agonist; read-out: screening result against bitter receptor 13
Outline: as §1

hT2R75 = hT2R75 (Homo sapiens (Human), UniProt P59540); assay: hT2R panel inhibition, transient HEK293 G16g44, agonist Strychnine 1 μM; format: cell-based; conditions: HEK293, read-out: screening result against bitter receptor 75, compound at 25 μM; receptor activated to EC80 with the corresponding agonist
hT2R8 = hT2R8 (Homo sapiens (Human), UniProt Q9NYW2); assay: hT2R panel inhibition, transient HEK293 G16g44, agonist Andrographolide 0.5 mM; format: cell-based; conditions: HEK293, compound at 25 μM; receptor activated to EC80 with the corresponding agonist; read-out: screening result against bitter receptor 8
Protocol: Specifically, in order to evaluate the inhibitory selectivity of the Compound C compound, this compound was tested against 22 human T2Rs which were deorphaned by Senomyx. These receptors and the bitter ligands that activate these human T2Rs are reported in earlier patent applications which are incorporated by reference herein. These 22 human T2Rs are hT2R1, 3, 4, 5, 7, 8, 9, 10, 13, 14, 16, 44, 51, 54, 55, 61, 63, 64, 65, 67, 71 and 75. The amino acid and nucleic acid sequences of all of these T2Rs may be found in these earlier patent applications. These human T2Rs were each individually transiently transfected into HEK293 cells that stably express the promiscuous G protein G16g44 and functional assays were effected using these receptors as disclosed in these same patent applications. […] The ligands were used at EC80 concentration levels. The list of bitter ligands utilized and the tested ligand concentrations are contained in Table 5 of this example.

hT2R61 = hT2R61 (Homo sapiens (Human), UniProt P59537); assay: hT2R panel inhibition, transient HEK293 G16g44, agonist Aristolochic Acid 25 nM; format: cell-based; conditions: HEK293, compound at 25 μM; receptor activated to EC80 with the corresponding agonist; read-out: screening result against bitter receptor 61
Outline: as §1

hT2R7 = hT2R7 (Homo sapiens (Human), UniProt Q9NYW3); assay: hT2R panel inhibition, transient HEK293 G16g44, agonist Chloroquine pH6.5 10 mM; format: cell-based; conditions: HEK293, compound at 25 μM; receptor activated to EC80 with the corresponding agonist; read-out: screening result against bitter receptor 7
Outline: as §1

hT2R54 = assay: hT2R panel inhibition, transient HEK293 G16g44, agonist Ranitidine 5 mM; format: cell-based, human; conditions: compound at 25 μM; receptor activated to EC80 with the corresponding agonist
Outline: as §1

hT2R44 = assay: hT2R panel inhibition, transient HEK293 G16g44, agonist Denatonium 0.5 μM; format: cell-based, human; conditions: compound at 25 μM; receptor activated to EC80 with the corresponding agonist
Outline: as §1

hT2R65 = assay: hT2R panel inhibition, transient HEK293 G16g44, agonist Oleuropein 1 mM; format: cell-based, human; conditions: compound at 25 μM; receptor activated to EC80 with the corresponding agonist
Outline: as §1

hT2R3 = hT2R3 (Homo sapiens (Human), UniProt Q9NYW6); assay: hT2R panel inhibition, transient HEK293 G16g44, agonist Chloroquine pH6.5 50 μM; format: cell-based; conditions: HEK293, compound at 25 μM; receptor activated to EC80 with the corresponding agonist; read-out: screening result against bitter receptor 3
Outline: as §1

hT2R63 = assay: hT2R panel inhibition, transient HEK293 G16g44, agonist Caffeine 1 mM or Andrographolide 100 μM; format: cell-based, human; conditions: compound at 25 μM; receptor activated to EC80 with the corresponding agonist
Outline: as §1

hT2R64 = hT2R64 (Homo sapiens (Human), UniProt P59538); assay: hT2R panel inhibition, transient HEK293 G16g44, agonist Aristolochic Acid 1 μM; format: cell-based; conditions: HEK293, compound at 25 μM; receptor activated to EC80 with the corresponding agonist; read-out: screening result against bitter receptor 64
Outline: as §1

hT2R67 = assay: hT2R panel inhibition, transient HEK293 G16g44, agonist Andrographolide 5 μM; format: cell-based, human; conditions: compound at 25 μM; receptor activated to EC80 with the corresponding agonist
Outline: as §1

hT2R55 = assay: hT2R panel inhibition, transient HEK293 G16g44, agonist Cinchonine 150 μM; format: cell-based, human; conditions: compound at 25 μM; receptor activated to EC80 with the corresponding agonist
Outline: as §1

hT2R71 = hT2R71 (Homo sapiens (Human), UniProt P59536); assay: hT2R panel inhibition, transient HEK293 G16g44, agonist Picric Acid 10 μM; format: cell-based; conditions: HEK293, compound at 25 μM; receptor activated to EC80 with the corresponding agonist; read-out: screening result against bitter receptor 71
Outline: as §1

hT2R10 = hT2R10 (Homo sapiens (Human), UniProt Q9NYW0); assay: hT2R panel inhibition, transient HEK293 G16g44, agonist Strychnine 50 μM; format: cell-based; conditions: HEK293, read-out: screening result against bitter receptor 10, compound at 25 μM; receptor activated to EC80 with the corresponding agonist
Sequence of hT2R10 (Q9NYW0 whole entry): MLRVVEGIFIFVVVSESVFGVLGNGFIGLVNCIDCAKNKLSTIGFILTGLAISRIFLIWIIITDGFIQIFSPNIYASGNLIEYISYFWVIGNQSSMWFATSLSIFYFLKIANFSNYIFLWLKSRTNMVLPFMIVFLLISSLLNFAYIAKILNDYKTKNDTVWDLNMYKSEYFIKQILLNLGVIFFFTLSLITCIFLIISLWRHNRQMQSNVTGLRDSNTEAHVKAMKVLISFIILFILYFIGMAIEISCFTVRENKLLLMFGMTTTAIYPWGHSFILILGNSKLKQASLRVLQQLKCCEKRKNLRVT

T1 sequence (Q9NYV8 whole entry): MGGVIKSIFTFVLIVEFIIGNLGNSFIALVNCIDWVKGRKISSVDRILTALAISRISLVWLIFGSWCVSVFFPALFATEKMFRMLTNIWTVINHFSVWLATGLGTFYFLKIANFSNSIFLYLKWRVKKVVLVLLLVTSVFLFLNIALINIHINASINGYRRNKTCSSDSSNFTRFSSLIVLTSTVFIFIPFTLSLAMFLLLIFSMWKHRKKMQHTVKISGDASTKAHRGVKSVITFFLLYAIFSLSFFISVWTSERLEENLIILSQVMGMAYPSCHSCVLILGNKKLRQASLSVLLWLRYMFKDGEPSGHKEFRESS
Sequence of hT2R5 (Q9NYW4 whole entry): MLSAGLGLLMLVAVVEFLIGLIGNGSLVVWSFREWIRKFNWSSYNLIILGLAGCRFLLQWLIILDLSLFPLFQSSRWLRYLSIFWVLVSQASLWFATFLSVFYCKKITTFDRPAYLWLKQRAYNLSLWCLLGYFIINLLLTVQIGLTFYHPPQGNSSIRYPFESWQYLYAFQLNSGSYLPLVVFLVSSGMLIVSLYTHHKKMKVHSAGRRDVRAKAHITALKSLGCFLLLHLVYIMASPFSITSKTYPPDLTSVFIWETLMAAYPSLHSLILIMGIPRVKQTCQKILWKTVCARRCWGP
Sequence of hT2R8 (Q9NYW2 whole entry): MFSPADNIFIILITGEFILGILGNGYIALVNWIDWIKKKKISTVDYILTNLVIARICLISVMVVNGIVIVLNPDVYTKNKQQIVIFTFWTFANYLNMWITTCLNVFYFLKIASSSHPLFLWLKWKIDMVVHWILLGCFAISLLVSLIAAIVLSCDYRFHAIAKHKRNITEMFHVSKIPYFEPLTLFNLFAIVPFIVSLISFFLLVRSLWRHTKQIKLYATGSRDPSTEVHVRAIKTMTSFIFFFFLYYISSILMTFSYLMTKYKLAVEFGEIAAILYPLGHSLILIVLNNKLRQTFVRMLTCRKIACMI
Sequence of hT2R9 (Q9NYW1 whole entry): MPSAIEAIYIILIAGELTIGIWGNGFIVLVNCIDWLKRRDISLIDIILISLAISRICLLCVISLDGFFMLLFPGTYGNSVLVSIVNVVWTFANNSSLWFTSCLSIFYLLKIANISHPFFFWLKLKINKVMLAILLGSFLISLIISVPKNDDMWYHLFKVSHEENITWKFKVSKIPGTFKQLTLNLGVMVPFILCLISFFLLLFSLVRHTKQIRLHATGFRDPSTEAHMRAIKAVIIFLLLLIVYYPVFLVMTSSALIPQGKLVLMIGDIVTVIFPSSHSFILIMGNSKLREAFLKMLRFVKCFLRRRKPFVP
Sequence of hT2R51 (P59533 whole entry): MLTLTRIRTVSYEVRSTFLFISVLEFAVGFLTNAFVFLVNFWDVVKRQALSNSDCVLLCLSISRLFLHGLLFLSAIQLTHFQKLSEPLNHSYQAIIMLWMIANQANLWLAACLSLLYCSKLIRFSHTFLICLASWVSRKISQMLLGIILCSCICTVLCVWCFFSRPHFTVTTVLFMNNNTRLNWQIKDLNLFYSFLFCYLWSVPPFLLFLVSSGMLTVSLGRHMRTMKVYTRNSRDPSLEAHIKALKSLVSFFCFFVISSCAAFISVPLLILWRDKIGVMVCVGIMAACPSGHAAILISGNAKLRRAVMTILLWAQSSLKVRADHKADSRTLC
Sequence of hT2R64 (P59538 whole entry): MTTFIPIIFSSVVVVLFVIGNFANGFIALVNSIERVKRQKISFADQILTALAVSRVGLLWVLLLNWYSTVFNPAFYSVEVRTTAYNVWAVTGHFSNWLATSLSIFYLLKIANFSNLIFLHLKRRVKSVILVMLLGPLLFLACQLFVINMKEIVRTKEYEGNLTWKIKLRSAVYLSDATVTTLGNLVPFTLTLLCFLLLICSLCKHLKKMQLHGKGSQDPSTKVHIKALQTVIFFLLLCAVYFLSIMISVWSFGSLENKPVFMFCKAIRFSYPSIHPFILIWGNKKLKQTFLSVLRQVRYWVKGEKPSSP
Sequence of hT2R16 (Q9NYV7 whole entry): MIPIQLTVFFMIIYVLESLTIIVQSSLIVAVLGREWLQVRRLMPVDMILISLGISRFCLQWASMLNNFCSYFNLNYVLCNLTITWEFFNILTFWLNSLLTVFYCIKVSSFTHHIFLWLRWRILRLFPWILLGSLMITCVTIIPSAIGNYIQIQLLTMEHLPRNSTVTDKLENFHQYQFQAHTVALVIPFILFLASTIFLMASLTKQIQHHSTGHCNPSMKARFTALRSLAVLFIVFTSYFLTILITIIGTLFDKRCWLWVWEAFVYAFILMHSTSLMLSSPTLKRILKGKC
Sequence of hT2R75 (P59540 whole entry): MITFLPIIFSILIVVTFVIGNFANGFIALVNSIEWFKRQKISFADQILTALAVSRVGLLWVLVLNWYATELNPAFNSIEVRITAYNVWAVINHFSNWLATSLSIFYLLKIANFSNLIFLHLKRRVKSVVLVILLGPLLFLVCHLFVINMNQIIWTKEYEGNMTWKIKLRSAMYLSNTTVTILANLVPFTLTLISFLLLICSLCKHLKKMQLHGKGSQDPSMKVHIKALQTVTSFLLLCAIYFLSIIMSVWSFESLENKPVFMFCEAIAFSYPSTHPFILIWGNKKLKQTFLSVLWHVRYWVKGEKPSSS
Sequence of hT2R61 (P59537 whole entry): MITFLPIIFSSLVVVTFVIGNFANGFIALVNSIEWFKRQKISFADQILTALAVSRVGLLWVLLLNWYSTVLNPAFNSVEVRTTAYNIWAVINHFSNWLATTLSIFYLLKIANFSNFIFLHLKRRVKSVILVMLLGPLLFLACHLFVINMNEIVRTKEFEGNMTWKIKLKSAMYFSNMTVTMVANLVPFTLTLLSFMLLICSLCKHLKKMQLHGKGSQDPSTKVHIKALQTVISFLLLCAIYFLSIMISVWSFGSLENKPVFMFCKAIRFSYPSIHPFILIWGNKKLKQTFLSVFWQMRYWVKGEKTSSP
Sequence of hT2R13 (Q9NYV9 whole entry): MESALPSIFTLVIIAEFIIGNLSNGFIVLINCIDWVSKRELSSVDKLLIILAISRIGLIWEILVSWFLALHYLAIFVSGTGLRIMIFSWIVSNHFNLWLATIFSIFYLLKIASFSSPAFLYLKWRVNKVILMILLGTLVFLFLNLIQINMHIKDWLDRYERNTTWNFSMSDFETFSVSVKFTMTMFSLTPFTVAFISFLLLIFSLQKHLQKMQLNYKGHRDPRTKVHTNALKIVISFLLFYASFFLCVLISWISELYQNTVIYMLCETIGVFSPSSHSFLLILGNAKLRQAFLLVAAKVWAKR
Sequence of hT2R7 (Q9NYW3 whole entry): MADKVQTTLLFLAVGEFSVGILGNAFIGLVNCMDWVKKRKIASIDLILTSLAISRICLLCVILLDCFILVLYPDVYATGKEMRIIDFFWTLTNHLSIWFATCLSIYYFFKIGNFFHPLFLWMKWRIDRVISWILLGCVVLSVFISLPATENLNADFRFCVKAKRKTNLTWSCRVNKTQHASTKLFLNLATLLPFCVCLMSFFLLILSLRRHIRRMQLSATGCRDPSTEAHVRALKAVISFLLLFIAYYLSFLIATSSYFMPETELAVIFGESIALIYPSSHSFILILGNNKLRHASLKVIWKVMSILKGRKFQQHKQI
Sequence of hT2R3 (Q9NYW6 whole entry): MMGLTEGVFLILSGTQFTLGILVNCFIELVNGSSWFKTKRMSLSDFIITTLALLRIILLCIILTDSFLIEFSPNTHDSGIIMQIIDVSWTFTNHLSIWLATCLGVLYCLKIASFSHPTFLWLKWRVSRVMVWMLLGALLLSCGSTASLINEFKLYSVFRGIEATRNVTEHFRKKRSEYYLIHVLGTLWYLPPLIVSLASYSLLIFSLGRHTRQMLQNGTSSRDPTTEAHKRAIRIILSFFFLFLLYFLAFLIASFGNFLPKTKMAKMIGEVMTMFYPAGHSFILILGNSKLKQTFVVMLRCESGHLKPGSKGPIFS
Sequence of hT2R71 (P59536 whole entry): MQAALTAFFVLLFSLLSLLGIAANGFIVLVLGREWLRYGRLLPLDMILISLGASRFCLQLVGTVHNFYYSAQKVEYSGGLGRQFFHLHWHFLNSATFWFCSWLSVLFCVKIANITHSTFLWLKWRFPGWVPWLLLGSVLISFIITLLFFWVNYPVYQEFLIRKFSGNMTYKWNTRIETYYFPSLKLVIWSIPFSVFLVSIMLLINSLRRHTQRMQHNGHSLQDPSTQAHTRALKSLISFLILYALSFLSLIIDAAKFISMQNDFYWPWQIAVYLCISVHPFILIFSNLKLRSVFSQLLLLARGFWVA
Sequence of hT2R4 (Q9NYW5 whole entry): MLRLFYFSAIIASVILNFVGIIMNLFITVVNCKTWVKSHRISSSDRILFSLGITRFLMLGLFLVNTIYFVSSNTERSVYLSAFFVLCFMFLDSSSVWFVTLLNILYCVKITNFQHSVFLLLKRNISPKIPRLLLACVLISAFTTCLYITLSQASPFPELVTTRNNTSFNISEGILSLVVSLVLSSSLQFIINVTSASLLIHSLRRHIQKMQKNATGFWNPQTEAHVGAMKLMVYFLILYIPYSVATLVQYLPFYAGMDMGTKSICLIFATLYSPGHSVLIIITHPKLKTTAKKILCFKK

| Compound | inhibition at 25 µM (hT2R14 [1]) | inhibition at 25 µM (hT2R16) | inhibition at 25 µM (hT2R5) | inhibition at 25 µM (hT2R9) | inhibition at 25 µM (hT2R51) | IC50 (hT2R14 [2]) | inhibition at 25 µM (hT2R13) | inhibition at 25 µM (hT2R75) | inhibition at 25 µM (hT2R8) | inhibition at 25 µM (hT2R61) | inhibition at 25 µM (hT2R7) | screening result against bitter receptor 54 (hT2R54) | screening result against bitter receptor 44 (hT2R44) | inhibition at 25 µM (hT2R3) | screening result against bitter receptor 63 (hT2R63) | inhibition at 25 µM (hT2R64) | further results |
| --- | --- | --- | --- | --- | --- | --- | --- | --- | --- | --- | --- | --- | --- | --- | --- | --- | --- |
| COc1ccc(CN(Cc2ccccc2)S(=O)(=O)c2ccc(C(=O)O)cc2)cc1 [Example 5-1, 4-(N-benzyl-N-(4-methoxybenzyl)sulfamoyl)benzoic acid] | > 80% | 40 to 60% | 20 to 40% | 20 to 40% | 60 to 80% | 220 nM | 20 to 40% | 20 to 40% | 20 to 40% | > 80% | 40 to 60% |  |  |  |  |  | inhibition at 25 µM (hT2R4): 20 to 40%; melting point: 161 to 163 °C |
| COc1ccc(CN(Cc2cccc(Cl)c2)S(=O)(=O)c2ccc(C(=O)O)cc2)cc1 [Example 5-14, 4-(N-(3-chlorobenzyl)-N-(4-methoxybenzyl)sulfamoyl)benzoic acid] | > 80% | 60 to 80% | 60 to 80% | 40 to 60% | 60 to 80% | 1880 nM | 20 to 40% | 40 to 60% | 20 to 40% | > 80% | 60 to 80% | ++++ (80% or greater inhibition = ++++) | +++ (60% to 80% inhibition = +++) | > 80% | ++++ (80% or greater inhibition = ++++) | > 80% | screening result against bitter receptor 65 (hT2R65): ++++ (80% or greater inhibition = ++++); screening result against bitter receptor 67 (hT2R67): ++ (40% to 60% inhibition = ++); screening result against bitter receptor 55 (hT2R55): ++++ (80% or greater inhibition = ++++); inhibition at 25 µM (hT2R71): > 80%; inhibition at 25 µM (hT2R10): > 80% |
| COc1ccc(CN(Cc2ccccc2C)S(=O)(=O)c2ccc(C(=O)O)cc2)cc1 [Example 5-64, 4-(N-(4-methoxybenzyl)-N-(2-methylbenzyl)sulfamoyl)benzoic acid] |  |  | 20 to 40% | 20 to 40% |  |  |  |  | 20 to 40% |  |  | + (20% to 40% inhibition = +) | + (20% to 40% inhibition = +) | 20 to 40% | + (20% to 40% inhibition = +) | 20 to 40% |  |
